The text below walks through data of PubChem BioAssay (NCI).

What all share (assay): NCI anticancer screen, dose series, 48 h
In experiment [1] the test system is ACHN renal.
Experiment [2] has as its system SF-539 CNS.
The test system of experiment [3] is NCI-H23 lung.
In experiment [4] the test system is SW-620 colon.
The test system of experiment [5] is SK-MEL-2 melanoma.
The subject of experiment [6] is HL-60(TB) leukemia.
Experiment [7] deals with OVCAR-8 ovarian.
The test system of experiment [8] is SF-268 CNS.
In experiment [9] the test system is HCT-15 colon.
For experiment [10], the system named is HCC-2998 colon.

SMILES strings stand for the structures.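 Cells were grown in 96-well plates and exposed to each compound for 48 hours at five concentrations; endpoints were interpolated linearly between bracketing concentrations, or set to the highest concentration if not reached. The concentration for 50% growth inhibition is given as GI50. Definition used: TGI = concentration required for complete inhibition of growth.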

`O=C(O)C1OC(n2cc(F)c(=O)[nH]c2=O)CC1O` (stereo not given): the TGI in experiment [1] is over 59.1 µM; in experiment [2], 26.2 µM; in experiment [3] it was over 100 µM; in [4], over 100 µM; in [5] it was over 100 µM; in experiment [6] it was over 100 µM. Besides, the TGI in [7] was over 100 µM; in [8], over 100 µM; in experiment [9], over 100 µM; in experiment [10], over 77.4 µM.

On to `CN1c2ccc(Cl)cc2C(=O)NC1c1ccc([N+](=O)[O-])s1` (stereo not given), for which the TGI is 51.7 µM in experiment [1]; 37.5 µM in experiment [2]; over 100 µM in experiment [4]; 30.8 µM in [5]; 49.3 µM in experiment [6]; 38.9 µM in experiment [7]. In addition, the TGI turned out to be 21.5 µM in experiment [8], 35.9 µM in experiment [9] and 31.1 µM in [10].

Turning to `C=C1C(=O)O[C@H]2[C@H]1CC/C(COC(=O)C(=O)c1cn(Cc3ccccc3)c3ccccc13)=C\CC[C@@]1(C)O[C@@H]21`, the GI50 in experiment [2] is 1.9 µM; in experiment [3], 1.67 µM; in experiment [4], 2.33 µM; in experiment [5], 2.09 µM; in [6], 2.26 µM; in experiment [7], 3.04 µM. Moreover, the GI50 in experiment [8] is 2.16 µM; in experiment [9], 1.45 µM; in experiment [10], 1.91 µM. In addition, the TGI came out at 3.83 µM in [2]; 3.56 µM in experiment [3]; 7.77 µM in experiment [4]; 4.71 µM in experiment [5]; 7 µM in experiment [6]; 11.4 µM in [7]. Further, the TGI in experiment [8] came out at 6.3 µM; in experiment [9], 3.69 µM; in experiment [10], 4.26 µM.

For the compound `N#C/C(=C1C=C(Br)/C(=N\O)C=C\1Cl)c1cccc2ccccc12`, the TGI in experiment [1] turned out to be 22.9 µM; in experiment [2] it was 4.52 µM; in experiment [3] it was 36.3 µM; in experiment [4], 25.5 µM; in experiment [5], 8.9 µM; in [6] it was 11.6 µM. Besides, the TGI in experiment [7] was 52.7 µM; in experiment [8], 29.3 µM; in experiment [9], 25.6 µM; in experiment [10], 17.7 µM.

On to `COc1cc(-c2ccc3c(c2)NC(=O)/C3=C\c2ccc[nH]2)ccc1O`, for which the GI50 in experiment [1] was 0.0417 µM; in [2] it was 0.0156 µM; in experiment [3], 0.0662 µM; in experiment [4], 0.0188 µM; in [5], 0.034 µM; in [6] it was 0.0155 µM. Also, the GI50 in experiment [7] is 0.0252 µM; in experiment [8], 0.377 µM; in experiment [9] it was 0.0228 µM; in experiment [10], 0.0981 µM. Moreover, the TGI in [1] was over 50 µM; in experiment [2], 0.236 µM; in experiment [3], over 50 µM; in experiment [4], over 50 µM; in experiment [5], over 50 µM; in experiment [7], over 50 µM. For the same compound, the results for the TGI in [8], in experiment [9] and in experiment [10] were over 50 µM, over 50 µM and 1.84 µM, respectively.

For `O=C(N/N=C/c1ccc(Cl)cc1)c1ccc(C(F)(F)F)nc1Nc1cccc(C(F)(F)F)c1`, the GI50 was 2.73 µM in experiment [1]; 2.11 µM in [2]; 2.31 µM in [3]; 1.45 µM in [4]; 2.58 µM in experiment [5]; 1.45 µM in experiment [6]. The GI50 in experiment [7] was 2.23 µM; in experiment [8], 1.14 µM; in experiment [9], 0.855 µM; in experiment [10], 4.3 µM. The TGI in experiment [1] amounted to 8.77 µM; in experiment [2], 6.69 µM; in experiment [3], 8.74 µM; in [4] it was 10.4 µM; in experiment [5], 7.91 µM; in experiment [6], 5.69 µM. Besides, the TGI in experiment [7] is 15.1 µM; in experiment [8] it was 8.29 µM; in [9], 12.2 µM; in experiment [10], 17.3 µM.

For `CCOC(=O)[C@@H](N)CCC(=O)N[C@@H](CSCc1ccccc1)C(=O)N[C@@H](C(=O)OCC)c1ccccc1`, the GI50 in experiment [1] is 18.6 µM; in experiment [2], 17.6 µM; in experiment [3], 18.8 µM; in [4], 20.7 µM; in [5], 16.7 µM; in experiment [6], 18.5 µM. Moreover, the GI50 in [7] was 16.8 µM; in experiment [8], 16.6 µM; in experiment [9] it was 33.7 µM; in [10], 16.7 µM. In addition, the TGI in [1] turned out to be 34.8 µM; in experiment [2], 33.8 µM; in experiment [3], 40.9 µM; in [4], 49.2 µM; in experiment [5] it was 32.7 µM; in [6], 39.5 µM. Besides, the TGI in experiment [7] is 32.5 µM; in [8], 31.3 µM; in experiment [9] it was over 71.2 µM; in experiment [10], 32.2 µM.

Regarding `CCOc1ccccc1N=Nc1ccc2oc(=O)c(C(=O)Nc3cccc(C)c3)cc2c1`, the TGI is 91.1 µM in experiment [2]; 94.7 µM in experiment [3]; over 100 µM in [4]; 46.9 µM in [5]; 63.3 µM in experiment [6]; 86 µM in [7]. Also, the TGI in experiment [8] was over 100 µM; in experiment [9], over 100 µM; in [10], 96.9 µM.

In the case of `COc1cc(C(C)O)c[n+](CCc2c[nH]c3ccccc23)c1` (stereo not given), the TGI in experiment [1], in experiment [2], in experiment [3], in [4], in [5] and in experiment [6] was over 100 µM throughout. Besides, the TGI in [7], in experiment [8], in [9] and in experiment [10] was over 100 µM in each case.

As for `CC(=O)CSCc1ccccn1`, the TGI in experiment [1] was over 100 µM; in experiment [2], 67.9 µM; in experiment [3], over 100 µM; in [4] it was over 100 µM; in [5], 71.4 µM; in [6], 64.5 µM. Further, the TGI in experiment [7], in [8], in experiment [9] and in experiment [10] was over 100 µM in each case.
